# From ChEMBL document CHEMBL5104135, “Potent and selective TYK2-JH1 inhibitors highly efficacious in rodent model of psoriasis” (Bioorg Med Chem Lett, 2022)
# Calls of active or inactive are those of the source. No cut-off for these calls is given here.
# Assays:
# [1] = organism: Homo sapiens; test: Ratio Ki for inhibition of JAK3 (unknown origin) over TYK2 JH1 domain (unknown origin)
# [2] = organism: Homo sapiens; test: Ratio Ki for inhibition of JAK2 (unknown origin) over TYK2 JH1 domain (unknown origin)
# [3] = Thermodynamic solubility in simulated gastric fluid; type: physicochemical; settings: read-out: Therm_solubility
# [4] = Thermodynamic solubility in fasted simulated intestinal fluid; type: physicochemical; settings: read-out: Therm_solubility
# [5] = Kinetic solubility of compound at pH 7.4; settings: buffer
# [6] = organism: Homo sapiens; test: Ratio Ki for inhibition of JAK1 (unknown origin) over TYK2 JH1 domain (unknown origin)
# [7] = Efflux ratio of apparent permeability in human Caco-2 cells
# [8] = target: Non-receptor tyrosine-protein kinase TYK2 (Homo sapiens, UniProt P29597)
# Description: Inhibition of TYK2 JH1 domain (unknown origin) measured in presence of 10 uM ATP
# [9] = system: Blood; test: Inhibition of IL-12- induced IFN-gamma production in human whole blood; type: functional, tissue-based; settings: for IC50: Homo sapiens, Blood
# [10] = system: Blood; test: Inhibition of IL-12- induced IFN-gamma production in mouse whole blood; type: functional, tissue-based; settings: for IC50: Mus musculus, Blood
# [11] = Plasma protein binding in mouse assessed as unbound fraction
# [12] = Plasma protein binding in human assessed as unbound fraction
# [13] = Clearance in rat at 3 mg/kg, iv; type: ADME, organism-based; settings: in vivo
# [14] = target: T1, Alpha-2B adrenergic receptor (Homo sapiens) (UniProt P18089); test: Inhibition of human adrenergic alpha2B at 10 uM measured by radioligand binding assay relative to control
# T1 sequence (whole entry): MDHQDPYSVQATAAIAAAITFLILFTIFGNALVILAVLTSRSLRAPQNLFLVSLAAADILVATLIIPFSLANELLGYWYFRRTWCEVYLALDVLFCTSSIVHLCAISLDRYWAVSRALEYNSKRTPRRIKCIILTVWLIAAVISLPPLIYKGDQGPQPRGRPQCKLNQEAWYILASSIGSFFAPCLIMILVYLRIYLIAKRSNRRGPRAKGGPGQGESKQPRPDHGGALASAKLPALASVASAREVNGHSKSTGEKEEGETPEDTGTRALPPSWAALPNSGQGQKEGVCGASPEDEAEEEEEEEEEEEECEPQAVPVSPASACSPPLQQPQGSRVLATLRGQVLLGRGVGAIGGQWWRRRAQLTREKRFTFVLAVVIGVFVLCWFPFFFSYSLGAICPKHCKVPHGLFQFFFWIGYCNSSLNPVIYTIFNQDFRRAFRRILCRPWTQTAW
# [15] = Oral bioavailability in mouse at 10 mg/kg; type: ADME, organism-based; settings: in vivo
# [16] = system: Spleen; test: Anti-inflammatory activity in imiquimod-induced mouse psoriasis model assessed as reduction in inflammation in spleen at 10 to 100 mg/kg/day; type: functional, organism-based; settings: dose 10-100 mg/kg/day
# [17] = target: T2, Peroxisome proliferator-activated receptor gamma (Homo sapiens) (UniProt P37231); test: Inhibition of human PPARgamma at 10 uM measured by radioligand binding assay relative to control
# T2 sequence (whole entry): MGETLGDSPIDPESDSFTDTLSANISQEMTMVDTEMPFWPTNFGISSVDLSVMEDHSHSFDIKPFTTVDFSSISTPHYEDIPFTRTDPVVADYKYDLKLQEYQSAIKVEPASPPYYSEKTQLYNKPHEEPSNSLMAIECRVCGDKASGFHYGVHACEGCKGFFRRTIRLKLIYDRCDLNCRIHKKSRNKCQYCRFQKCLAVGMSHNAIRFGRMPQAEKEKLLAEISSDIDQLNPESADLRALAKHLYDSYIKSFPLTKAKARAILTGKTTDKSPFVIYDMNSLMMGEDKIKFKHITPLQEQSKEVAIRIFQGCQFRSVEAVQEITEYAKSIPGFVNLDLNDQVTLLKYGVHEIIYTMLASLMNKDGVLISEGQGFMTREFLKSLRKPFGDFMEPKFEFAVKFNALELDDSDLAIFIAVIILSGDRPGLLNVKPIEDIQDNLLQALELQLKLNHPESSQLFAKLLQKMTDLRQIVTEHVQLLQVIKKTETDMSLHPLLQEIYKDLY
# [18] = Half-life in dog at 3 mg/kg, iv; type: ADME, organism-based, Canis lupus familiaris; settings: in vivo
# [19] = Plasma protein binding in rat
# [20] = Plasma protein binding in dog
# [21] = system: Spleen; test: Anti-inflammatory activity in imiquimod-induced mouse psoriasis model assessed as reduction in spleen weight at 10 to 100 mg/kg/day; type: functional, organism-based; settings: dose 10-100 mg/kg/day
# [22] = Oral bioavailability in rat at 10 mg/kg; type: ADME, organism-based; settings: in vivo
# [23] = system: Mus musculus; test: Anti-inflammatory activity in IL-23-induced ear inflammation model of mouse assessed as inhibition of IL-17A levels at 100 mg/kg/day; type: functional
# [24] = Clearance in mouse at 3 mg/kg, iv; type: ADME, organism-based; settings: in vivo
# [25] = Volume of distribution in dog at 3 mg/kg, iv; type: ADME, organism-based, Canis lupus familiaris; settings: in vivo
# [26] = Volume of distribution in rat at 3 mg/kg, iv; type: ADME, organism-based; settings: in vivo
# [27] = target: Phosphodiesterase 4 (Homo sapiens) (UniProt P27815+Q08499+Q07343+Q08493); test: Inhibition of human PDE4 at 10 uM measured by radioligand binding assay relative to control; type: protein assay
# [28] = Plasma protein binding in dog assessed as unbound fraction
# [29] = Plasma protein binding in rat assessed as unbound fraction
# [30] = Clearance in dog at 3 mg/kg, iv; type: ADME, organism-based, Canis lupus familiaris; settings: in vivo
# [31] = Oral bioavailability in dog at 10 mg/kg; type: ADME, organism-based, Canis lupus familiaris; settings: in vivo
# [32] = target: Protein kinase C (PKC) (Rattus norvegicus) (UniProt P05696+P68403+P09216+P63319+P09215+Q64617+Q9WTQ0+P09217); test: Inhibition of rat PKC at 10 uM measured by radioligand binding assay relative to control; type: protein assay
# [33] = target: Tyrosine-protein kinase Lck (Homo sapiens) (UniProt P06239); test: Inhibition of human LCK at 10 uM measured by radioligand binding assay relative to control
# [34] = system: Mus musculus; test: Anti-inflammatory activity in imiquimod-induced mouse psoriasis model assessed as reduction in psoriasis score at 10 to 100 mg/kg/day; type: functional, organism-based; settings: dose 10-100 mg/kg/day
# [35] = Half-life in rat at 3 mg/kg, iv; type: ADME, organism-based; settings: in vivo
# [36] = Half-life in mouse at 3 mg/kg, iv; type: ADME, organism-based; settings: in vivo
# [37] = system: Mus musculus; test: Anti-inflammatory activity in IL-23-induced ear inflammation model of mouse assessed as inhibition of ear swelling at 100 mg/kg/day; type: functional
# [38] = Volume of distribution in mouse at 3 mg/kg, iv; type: ADME, organism-based; settings: in vivo
# Non-receptor tyrosine-protein kinase TYK2, sequence (P29597 whole entry): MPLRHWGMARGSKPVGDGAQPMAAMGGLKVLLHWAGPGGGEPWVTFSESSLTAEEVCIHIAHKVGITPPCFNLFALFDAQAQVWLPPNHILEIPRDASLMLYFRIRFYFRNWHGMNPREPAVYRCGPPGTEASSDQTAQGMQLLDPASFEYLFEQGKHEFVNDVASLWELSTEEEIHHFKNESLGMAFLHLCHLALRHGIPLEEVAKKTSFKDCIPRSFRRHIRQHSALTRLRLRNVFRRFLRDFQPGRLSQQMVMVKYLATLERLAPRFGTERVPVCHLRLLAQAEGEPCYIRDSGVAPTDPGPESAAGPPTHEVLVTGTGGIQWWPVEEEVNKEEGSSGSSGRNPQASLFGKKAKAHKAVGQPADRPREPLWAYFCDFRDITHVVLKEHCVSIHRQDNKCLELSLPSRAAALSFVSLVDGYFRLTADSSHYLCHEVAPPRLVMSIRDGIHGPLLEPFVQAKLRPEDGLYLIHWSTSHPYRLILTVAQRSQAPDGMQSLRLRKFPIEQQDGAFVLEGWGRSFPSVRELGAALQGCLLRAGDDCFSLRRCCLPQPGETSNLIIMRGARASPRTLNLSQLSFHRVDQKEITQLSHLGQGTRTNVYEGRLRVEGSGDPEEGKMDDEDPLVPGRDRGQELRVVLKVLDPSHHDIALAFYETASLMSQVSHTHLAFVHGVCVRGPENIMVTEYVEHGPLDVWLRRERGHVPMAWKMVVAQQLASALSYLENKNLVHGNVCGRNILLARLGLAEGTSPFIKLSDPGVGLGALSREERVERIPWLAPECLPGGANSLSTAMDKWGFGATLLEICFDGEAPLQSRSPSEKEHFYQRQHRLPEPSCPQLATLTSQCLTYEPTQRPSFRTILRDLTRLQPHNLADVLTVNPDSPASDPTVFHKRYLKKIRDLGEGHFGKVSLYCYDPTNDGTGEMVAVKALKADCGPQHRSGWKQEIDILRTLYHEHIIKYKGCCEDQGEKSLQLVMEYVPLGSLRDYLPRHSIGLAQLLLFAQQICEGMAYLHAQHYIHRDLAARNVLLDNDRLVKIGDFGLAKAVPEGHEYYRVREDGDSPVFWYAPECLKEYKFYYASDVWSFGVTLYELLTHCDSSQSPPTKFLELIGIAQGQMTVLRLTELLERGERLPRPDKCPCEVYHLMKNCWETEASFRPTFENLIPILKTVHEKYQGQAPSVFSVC
# Tyrosine-protein kinase Lck (Homo sapiens), sequence (P06239 2-509 limits assumed): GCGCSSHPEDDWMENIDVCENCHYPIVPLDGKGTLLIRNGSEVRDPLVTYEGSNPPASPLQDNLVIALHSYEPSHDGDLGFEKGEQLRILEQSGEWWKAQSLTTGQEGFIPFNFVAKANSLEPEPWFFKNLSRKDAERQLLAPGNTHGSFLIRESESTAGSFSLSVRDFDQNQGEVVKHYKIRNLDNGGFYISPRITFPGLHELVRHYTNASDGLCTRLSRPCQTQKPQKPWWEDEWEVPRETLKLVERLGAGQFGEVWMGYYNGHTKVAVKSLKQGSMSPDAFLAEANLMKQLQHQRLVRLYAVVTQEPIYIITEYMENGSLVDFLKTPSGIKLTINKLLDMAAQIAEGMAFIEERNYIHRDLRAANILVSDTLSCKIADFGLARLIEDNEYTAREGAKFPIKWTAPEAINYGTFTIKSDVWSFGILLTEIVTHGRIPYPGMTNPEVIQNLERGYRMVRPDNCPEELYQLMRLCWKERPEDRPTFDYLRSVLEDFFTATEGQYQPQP
structure (smiles),measurement,setting,value
O=C1NCc2nc(-c3c(F)cccc3F)cc(Nc3ccc(N4CCOCC4=O)cn3)c21,Ratio Ki,[1],13
same,Ratio Ki,[2],77
same,solubility thermodynamic,[3],418 µM
same,solubility thermodynamic,[4],24 µM
same,solubility kinetic,[5],8.9 µM
same,Ratio Ki,[6],80
same,efflux ratio,[7],7.8
O=C1NCc2nc(-c3c(F)cccc3F)nc(Nc3ccc(C4CCNC4=O)cc3)c21 (stereo in doubt; 14b),Ki,[8],1.1 nM
CCNC(=O)C(C)(O)c1ccc(Nc2nc(-c3c(F)cccc3F)nc3c2C(=O)NC3)cc1 (stereo in doubt; 13b),Ki,[8],3.4 nM
O=C1NCc2nc(-c3c(F)cccc3F)cc(Nc3ccc(C(=O)N4CCOCC4)cc3)c21,fIC50,[9],0.16 µM
same,IC50,[9],620 nM
same,Ratio Ki,[1],8.6
same,Ratio Ki,[2],35
same,fIC50,[10],0.86 µM
same,IC50,[10],3.6 µM
same,solubility thermodynamic,[4],148 µM
same,fraction unbound,[11],0.24
same,solubility kinetic,[5],170 µM
same,Ratio Ki,[6],92
same,fraction unbound,[12],0.25
same,efflux ratio,[7],9.1
O=C1NCc2nc(-c3c(F)cccc3F)nc(Nc3ccc(C4CCCNC4=O)cc3)c21 (stereo in doubt; 15b),Ki,[8],3.9 nM
CCNC(=O)c1ccc(Nc2cc(-c3c(F)cccc3F)nc3c2C(=O)NC3)nc1,fIC50,[9],0.27 µM
same,IC50,[9],1600 nM
same,Ratio Ki,[1],24
same,Ratio Ki,[2],170
same,fIC50,[10],0.19 µM
same,IC50,[10],1.2 µM
same,solubility thermodynamic,[3],255 µM
same,solubility thermodynamic,[4],15 µM
same,fraction unbound,[11],0.16
same,solubility kinetic,[5],3.1 µM
same,Ratio Ki,[6],84
same,fraction unbound,[12],0.17
same,efflux ratio,[7],7.2
CCNC(=O)Cc1ccc(Nc2cc(-c3c(F)cccc3F)nc3c2C(=O)NC3)nc1,Ratio Ki,[1],5.7
same,Ratio Ki,[2],72
same,solubility kinetic,[5],0.6 µM
same,Ratio Ki,[6],39
same,efflux ratio,[7],9.6
O=C1NCc2nc(-c3c(F)cccc3F)cc(Nc3ccc(C(=O)N4CCCC4)cc3)c21,fIC50,[9],0.18 µM
same,IC50,[9],1800 nM
same,clearance,[13],27 mL/min/kg
same,inhibition,[14],56%
same,bioavailability,[15],> 90%
same,Activity,[16],Active
same,inhibition,[17],68%
same,half-life,[18],390 min
same,fraction unbound,[19],0.13
same,fraction unbound,[20],0.13
same,Activity,[21],Active
same,bioavailability,[22],32%
same,inhibition in vivo at 100 mg/kg/day,[23],96%
same,fIC50,[10],0.36 µM
same,IC50,[10],5.9 µM
same,solubility thermodynamic,[3],2300 µM
same,clearance,[24],28 mL/min/kg
same,Vd,[25],2.5 L/kg
same,solubility thermodynamic,[4],240 µM
same,Vd,[26],1.9 L/kg
same,fraction unbound,[11],0.061
same,inhibition,[27],59%
same,solubility kinetic,[5],270 µM
same,fraction unbound,[28],0.13
same,fraction unbound,[29],0.1
same,clearance,[30],5.2 mL/min/kg
same,bioavailability,[31],63%
same,inhibition,[32],66%
same,fraction unbound,[12],0.099
same,inhibition,[33],61%
same,Activity,[34],Active
same,half-life,[35],96 min
same,half-life,[36],108 min
same,inhibition in vivo at 100 mg/kg/day,[37],74%
same,Vd,[38],1.2 L/kg
CCNC(=O)Cc1ccc(Nc2nc(-c3c(F)cccc3F)nc3c2C(=O)NC3)cc1,Ratio Ki,[1],4.6
same,Ratio Ki,[2],30
same,solubility kinetic,[5],1.2 µM
same,Ratio Ki,[6],17
same,efflux ratio,[7],6.4
